In assay [1] the target is T1, wild-type ING3 PHD finger (Homo sapiens, UniProt Q9NXR8).
T1 construct: The ING3 PHD finger region (residues 360–409) was amplified using PCR; GST (N, cleaved yes); made in house; host or cells: Escherichia coli Rosetta 2(DE3)pLysS
Kind of assay: ITC of wild-type ING3 PHD finger with histone peptides. In kind it is binding. The note with it: for ITC KD / Kd: wild-type ING3 PHD, 5 °C, 20 mM NaH2PO4 pH 7.0, 150 mM NaCl, triplicate, non-binding in duplicate. The protocol:
(§1) ITC measurements were recorded at 5 °C using a MicroCal iTC200 (GE Healthcare) as described previously ([55]). The wild-type and mutant ING3PHD proteins and histone peptide samples were prepared in a 20 mM NaH2PO4, pH 7.0, and 150 mM NaCl ITC buffer by dialysis for 24–48 h. Titration experiments were set up for optimal heat of binding reactions by using 100–200 μM ING3PHD in the sample cell, and between 1 and 5 mM histone peptide in the injection syringe. Control experiments were performed under identical conditions to determine the heat of dilution of the titrant peptides into the experimental buffer. This was subtracted from the experimental data as part of data analysis. Data were analyzed using the software ORIGIN 7.0 (OriginLab Corp.).

For assay [2], the target named is T2, 15N-labeled ING3 PHD finger (Homo sapiens, UniProt Q9NXR8).
T2 construct: The ING3 PHD finger region (residues 360–409) was amplified using PCR; GST (N, cleaved yes); made in house; host or cells: Escherichia coli Rosetta 2(DE3)pLysS
The experiment in a line: 1H-15N HSQC NMR chemical shift perturbation. In kind it is binding. The note with it: 0.5 mM ING3 PHD, 20 mM Tris-HCl pH 6.8, 150 mM NaCl, 10 mM DTT, 25 °C; protein:peptide up to 1:2.61. The method, then: Chemical shift perturbation experiments were conducted using 0.5 mM uniformly ^15N-labeled ING3 PHD finger in buffer containing 20 mM Tris-HCl, pH 6.8, 150 mM NaCl, 10 mM DTT, and 10% D2O. Titration mixtures of the ING3PHD protein and each of the modified histone peptides were prepared at concentration ratios of 1:0, 1:0.13, 1:0.26, 1:0.52, 1:1.3, and 1:2.61 in a volume of 35 μl. These mixtures were then transferred into 1.7-mm NMR tubes (Bruker).
Two-dimensional ^15N HSQC (heteronuclear single quantum coherence) experiments for all samples were run at 25 °C on a 600 MHz Bruker AVANCE III spectrometer equipped with a z-gradient 1.7-mm TCI probe at the National Magnetic Resonance Facility at Madison (NMRFAM) using the NMRBot software ([57]). The NMR data were collected with 1024 × 128 complex data points along the ^1H and ^15N dimensions, with acquisition times of 104 and 81 ms, respectively, using eight scans per free induction decay. Normalized chemical shift changes were calculated using Equation 2, [drawing 2] where ΔδH and ΔδN are the proton and nitrogen change in chemical shift in ppm, respectively.

A further assay deals with T3, ING3 PHD finger (Homo sapiens, UniProt Q9NXR8).
T3 construct: The ING3 PHD finger region (residues 360–409) was amplified using PCR; GST (N, cleaved yes); made in house; host or cells: Escherichia coli Rosetta 2(DE3)pLysS
The experiment in a line: Tryptophan fluorescence titration of ING3 PHD finger with histone peptides. In kind it is binding. The note with it: 25 °C, 100 mM NaPO4 pH 7.5, 150 mM NaCl, 1 mM DTT, 10 μM ING3 PHD; average of three titrations; read-out: Trp fluorescence KD. The protocol:
Tryptophan fluorescence spectra of samples in tryptophan fluorescence buffer (100 mM NaPO4, pH 7.5, 150 mM NaCl, and 1 mM DTT) were collected at 25 °C using a Cary Eclipse fluorescence spectrometer (Varian). The samples contained 10 μM ING3 PHD finger protein and progressively increasing concentrations of histone H3 and H4 peptides. The 12- and 14-mer unlabeled histone tail peptides with an amidated C terminus and specific methylation modifications (H3K4me3, H3K4me2, H3K4me1, H3 unmodified, and H4 unmodified) were synthesized by the Peptide Core Facility at the University of Colorado at Denver. After excitation at 295 nm, emission spectra were recorded between 305 and 405 nm with 0.5-nm increments and at a 1-s integration time, averaging over three scans. Each titration experiment was repeated three times, and the average KD values were calculated using quadratic Equation 1, [drawing 1] where Fi is the fluorescence change; Fs is the fluorescence change at saturation of XT (the total protein concentration); and YT is the peptide concentration.

Another assay deals with T4, ING3 PHD W31A (Homo sapiens, UniProt Q9NXR8, W385A).
T4 construct: The ING3 PHD finger region (residues 360–409) was amplified using PCR; GST (N, cleaved yes); made in house; host or cells: Escherichia coli Rosetta 2(DE3)pLysS
Kind of assay: ITC of ING3 PHD mutant with H3K4me3 peptide. Particulars: 5 °C, pH 7.0, non-binding in duplicate.
Text: (§2) The ING3 PHD finger region (residues 360–409) was amplified using PCR and cloned into the pDEST15 vector encoding an N-terminal glutathione transferase (GST) tag using the Gateway cloning technology (Invitrogen) as described previously ([55]). ING3PHD proteins with single mutations at W31A, W47A, S15A, P43A, Y8A, and D26H were generated using the QuikChange® mutagenesis procedure (Stratagene) as described previously ([56]). The DNA sequence for wild-type and mutant proteins was verified at the University of Vermont DNA facility, and the plasmids were transformed into in Escherichia coli Rosetta^TM 2(DE3)pLysS competent cells (Novagen) for protein expression.
as §1, with “This was subtracted from the experimental data as part of data analysis.” left out, “Corp.). […]” for “Corp.).”

The target of the next assay is T5, ING3 PHD W47A (Homo sapiens, UniProt Q9NXR8, W401A).
T5 construct: The ING3 PHD finger region (residues 360–409) was amplified using PCR; GST (N, cleaved yes); made in house; host or cells: Escherichia coli Rosetta 2(DE3)pLysS
The experiment in a line: ITC of ING3 PHD mutant with H3K4me3 peptide. The note with it: 5 °C, pH 7.0, triplicate. In kind it is binding.
Text: as §2
as §1, with “Corp.). All experiments where binding occurred were performed in triplicate, whereas non-binding experiments were performed in duplicate.” for “Corp.).”

The target of the next assay is T6, ING3 PHD Y8A (Homo sapiens, UniProt Q9NXR8, Y362A).
T6 construct: The ING3 PHD finger region (residues 360–409) was amplified using PCR; GST (N, cleaved yes); made in house; host or cells: Escherichia coli Rosetta 2(DE3)pLysS
The experiment in a line: ITC of ING3 PHD mutant with H3K4me3 peptide. The note with it: 5 °C, pH 7.0, triplicate. In kind it is binding.
Text: as §2
as §1, with “Corp.). All experiments where binding occurred were performed in triplicate, whereas non-binding experiments were performed in duplicate.” for “Corp.).”

In the next assay the target is T7, ING3 PHD S15A (Homo sapiens, UniProt Q9NXR8, S369A).
T7 construct: The ING3 PHD finger region (residues 360–409) was amplified using PCR; GST (N, cleaved yes); made in house; host or cells: Escherichia coli Rosetta 2(DE3)pLysS
Kind of assay: ITC of ING3 PHD mutant with H3K4me3 peptide. In kind it is binding.
Text: as §2
as §1, with “Corp.). All experiments where binding occurred were performed in triplicate, whereas non-binding experiments were performed in duplicate.” for “Corp.).”

In another assay the target is T8, ING3 PHD D26H (Homo sapiens, UniProt Q9NXR8, D380H).
T8 construct: The ING3 PHD finger region (residues 360–409) was amplified using PCR; GST (N, cleaved yes); made in house; host or cells: Escherichia coli Rosetta 2(DE3)pLysS
Kind of assay: ITC of ING3 PHD mutant with H3K4me3 peptide. In kind it is binding. The note with it: 5 °C, pH 7.0, triplicate.
Text: as §2
as §1, with “Corp.). All experiments where binding occurred were performed in triplicate, whereas non-binding experiments were performed in duplicate.” for “Corp.).”

The target in the next assay is T9, ING3 PHD P43A (Homo sapiens, UniProt Q9NXR8, P397A).
T9 construct: The ING3 PHD finger region (residues 360–409) was amplified using PCR; GST (N, cleaved yes); made in house; host or cells: Escherichia coli Rosetta 2(DE3)pLysS
The experiment in a line: ITC of ING3 PHD mutant with H3K4me3 peptide. In kind it is binding.
Text: as §2
as §1, with “Corp.). All experiments where binding occurred were performed in triplicate, whereas non-binding experiments were performed in duplicate.” for “Corp.).”

Values joined by “and” are separate entries in the source; they are usually repeats but may differ in a detail not shown here. Identical values can stand only once. “Also recorded” adds a separate entry of the source.

T7 sequence (Q9NXR8 360-409 S369A): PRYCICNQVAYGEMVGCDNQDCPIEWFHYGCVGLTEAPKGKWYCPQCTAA
T2 sequence (Q9NXR8 360-409): as the sequence (Q9NXR8 360-409 S369A) above, with A10S counted along it
T1 sequence (Q9NXR8 360-409): as the sequence (Q9NXR8 360-409 S369A) above, with A10S counted along it
T3 sequence (Q9NXR8 360-409): as the sequence (Q9NXR8 360-409 S369A) above, with A10S counted along it
T4 sequence (Q9NXR8 360-409 W385A): as the sequence (Q9NXR8 360-409 S369A) above, with A10S, W26A counted along it
T9 sequence (Q9NXR8 360-409 P397A): as the sequence (Q9NXR8 360-409 S369A) above, with A10S, P38A counted along it
T8 sequence (Q9NXR8 360-409 D380H): as the sequence (Q9NXR8 360-409 S369A) above, with A10S, D21H counted along it
T6 sequence (Q9NXR8 360-409 Y362A): as the sequence (Q9NXR8 360-409 S369A) above, with Y3A, A10S counted along it
T5 sequence (Q9NXR8 360-409 W401A): as the sequence (Q9NXR8 360-409 S369A) above, with A10S, W42A counted along it

For the compound “GKGGKGLGKGGAKR [H4 unmodified, unmodified histone H4 tail peptide residues 4–17, amidated C terminus]”, the entries for the “ITC KD” value in [1] and in assay [1] (listed as H4 unmodified(4–17)) were “No binding was observed” and “No binding”, respectively. For the same compound, the “chemical shift perturbations in 1H-15N HSQC upon addition of peptide” value (from here on “chemical shift perturbations”) in [2] was “No significant resonance shifts”.

For `C[C@H](N)C(=O)N[C@@H](CCCNC(=N)N)C(=O)N[C@H](C(=O)N[C@@H](CCCC[N+](C)(C)C)C(=O)N[C@@H](CCC(N)=O)C(=O)N[C@H](C(=O)N[C@@H](C)C(=O)N[C@@H](CCCNC(=N)N)C(=O)N[C@@H](CCCCN)C(=O)N[C@@H](CO)C(=O)N[C@H](C(=O)NCC(N)=O)[C@@H](C)O)[C@@H](C)O)[C@@H](C)O` [H3K4me3], the Kd (usually the free concentration of one partner at which half of the binding sites on the other are occupied at equilibrium, for simple one-to-one binding) at ING3 PHD finger is 0.63 ± 0.11 µM; in assay [1], 0.93 ± 0.04 µM; at ING3 PHD W47A, 48.31 ± 0.23 µM; at ING3 PHD Y8A, 46 ± 2.99 µM; at ING3 PHD S15A (5 °C, pH 7.0, triplicate) it was 1.5 ± 0.01 µM; at ING3 PHD D26H it was 1.93 ± 0.26 µM. For the same compound, binding at ING3 PHD P43A (5 °C, pH 7.0, triplicate) was put at a Kd of 2.45 ± 0.27 µM. In addition, on ING3 PHD W31A, the “ITC KD” value is reported as “no recognition of this ligand; also recorded: No binding”. Besides, the “association stronger than with the unmodified histone H3” value in assay [1] (abstract, method not specified (Trp fluorescence and ITC)) was “about 200 fold”. Further, the “drop in binding affinity versus WT” value is 2–3 fold and 2 fold on ING3 PHD S15A (ITC); 2–3 fold at ING3 PHD P43A (ITC). Moreover, in assay [2], the “chemical shift perturbations” value was “Chemical shift perturbations were induced”.

As for `CNCCCC[C@H](NC(=O)[C@@H](NC(=O)[C@H](CCCNC(=N)N)NC(=O)[C@H](C)N)[C@@H](C)O)C(=O)N[C@@H](CCC(N)=O)C(=O)N[C@H](C(=O)N[C@@H](C)C(=O)N[C@@H](CCCNC(=N)N)C(=O)N[C@@H](CCCCN)C(=O)N[C@@H](CO)C(=O)N[C@H](C(=O)NCC(N)=O)[C@@H](C)O)[C@@H](C)O` [H3K4me1], the Kd at ING3 PHD finger was 21.4 ± 3.51 µM; in assay [1], 23.2 ± 0.8 µM. Also, the “chemical shift perturbations” value in assay [2] was “Chemical shift perturbations were induced”.

Take `C[C@H](N)C(=O)N[C@@H](CCCNC(=N)N)C(=O)N[C@H](C(=O)N[C@@H](CCCCN)C(=O)N[C@@H](CCC(N)=O)C(=O)N[C@H](C(=O)N[C@@H](C)C(=O)N[C@@H](CCCNC(=N)N)C(=O)N[C@@H](CCCCN)C(=O)N[C@@H](CO)C(=O)N[C@H](C(=O)NCC(N)=O)[C@@H](C)O)[C@@H](C)O)[C@@H](C)O` [H3 unmodified]: the Kd at ING3 PHD finger was 132 ± 13.5 µM; in assay [1] it was 181 ± 19.2 µM. In addition, in assay [2], the “chemical shift perturbations” value is recorded as “Chemical shift perturbations were induced”.

In the case of `C[C@H](N)C(=O)N[C@@H](CCCNC(=N)N)C(=O)N[C@H](C(=O)N[C@@H](CCCCN(C)C)C(=O)N[C@@H](CCC(N)=O)C(=O)N[C@H](C(=O)N[C@@H](C)C(=O)N[C@@H](CCCNC(=N)N)C(=O)N[C@@H](CCCCN)C(=O)N[C@@H](CO)C(=O)N[C@H](C(=O)NCC(N)=O)[C@@H](C)O)[C@@H](C)O)[C@@H](C)O` [H3K4me2], the figures for the Kd (on ING3 PHD finger; in assay [1]) were 4.05 ± 0.53 µM and 2.99 ± 0.33 µM, respectively. Also, in assay [2], the “chemical shift perturbations” value was “Chemical shift perturbations were induced”.

The record behind these values is PMC5000080, “Mechanism of Histone H3K4me3 Recognition by the Plant Homeodomain of Inhibitor of Growth 3” (The Journal of Biological Chemistry, 2016).
